In patent US12649750B2, “Macrocyclic compounds, compositions, and methods of using thereof” (Sionna Therapeutics Inc., priority 2022, dated 2026):

Assays:
NBD1 = biological target: T1, NBD1 (Homo sapiens, UniProt P13569); experiment: Aggregation analysis using differential static light scattering (DSLS), thermal stability of NBD1 (ΔTagg); type: binding; conditions: ΔTagg versus DMSO control, NBD1 0.2 mg/ml
T1 construct: Purified recombinant NBD1 was produced using previously described methods; made in house
Method in brief: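 Purified recombinant NBD1 at 0.2 mg/ml in 50 mM Tris-HCl, 150 mM NaCl, 5 mM MgCl2, 2 mM ATP, 2 mM DTT, pH 7.6, 1% glycerol, with compound, heated 1° C./min to 70° C. under light-scattering monitoring. Tagg taken at curve inflection; ΔTagg is compound Tagg minus mean DMSO-control Tagg, binned A (≤5° C.), B (>5-≤10° C.), C (>10-≤25° C.).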

CFTR = biological target: T2, CFTR (Homo sapiens, UniProt P13569, DEL508-508); experiment: TECC24 AUC fold over DMSO @10 μM, CFTR-mediated transepithelial chloride transport in CF-HBE cells; type: cell-based; conditions: test agent AUC divided by DMSO vehicle AUC, primary CF-HBE cells, ΔF508 homozygous donor, 48 hours incubation
T2 construct: Primary human bronchial epithelial cells from a ΔF508 homozygous CF donor; host or cells: primary human bronchial epithelial cells (CF-HBE), ΔF508 homozygous donor
Method in brief: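 ΔF508-homozygous primary bronchial epithelial cells incubated 48 h at 36.5° C with compound (10 μM) in IL-13-containing medium, then TECC24 current-clamp recording in pH 7.4 Hepes saline with benzamil 10 μM, forskolin 10 μM, then CFTR inhibitor-172 20 μM. Equivalent Cl− current AUC between forskolin and inhibitor, expressed as fold over DMSO.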

T1 sequence (P13569 423-646 limits assumed): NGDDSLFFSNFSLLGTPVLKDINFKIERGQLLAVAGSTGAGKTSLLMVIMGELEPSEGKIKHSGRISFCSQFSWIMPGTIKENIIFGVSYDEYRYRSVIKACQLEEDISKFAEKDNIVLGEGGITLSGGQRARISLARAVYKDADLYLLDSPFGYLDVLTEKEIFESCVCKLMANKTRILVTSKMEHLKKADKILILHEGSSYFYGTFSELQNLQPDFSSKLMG
T2 sequence (P13569 with tags, fused parts or gaps DEL508-508): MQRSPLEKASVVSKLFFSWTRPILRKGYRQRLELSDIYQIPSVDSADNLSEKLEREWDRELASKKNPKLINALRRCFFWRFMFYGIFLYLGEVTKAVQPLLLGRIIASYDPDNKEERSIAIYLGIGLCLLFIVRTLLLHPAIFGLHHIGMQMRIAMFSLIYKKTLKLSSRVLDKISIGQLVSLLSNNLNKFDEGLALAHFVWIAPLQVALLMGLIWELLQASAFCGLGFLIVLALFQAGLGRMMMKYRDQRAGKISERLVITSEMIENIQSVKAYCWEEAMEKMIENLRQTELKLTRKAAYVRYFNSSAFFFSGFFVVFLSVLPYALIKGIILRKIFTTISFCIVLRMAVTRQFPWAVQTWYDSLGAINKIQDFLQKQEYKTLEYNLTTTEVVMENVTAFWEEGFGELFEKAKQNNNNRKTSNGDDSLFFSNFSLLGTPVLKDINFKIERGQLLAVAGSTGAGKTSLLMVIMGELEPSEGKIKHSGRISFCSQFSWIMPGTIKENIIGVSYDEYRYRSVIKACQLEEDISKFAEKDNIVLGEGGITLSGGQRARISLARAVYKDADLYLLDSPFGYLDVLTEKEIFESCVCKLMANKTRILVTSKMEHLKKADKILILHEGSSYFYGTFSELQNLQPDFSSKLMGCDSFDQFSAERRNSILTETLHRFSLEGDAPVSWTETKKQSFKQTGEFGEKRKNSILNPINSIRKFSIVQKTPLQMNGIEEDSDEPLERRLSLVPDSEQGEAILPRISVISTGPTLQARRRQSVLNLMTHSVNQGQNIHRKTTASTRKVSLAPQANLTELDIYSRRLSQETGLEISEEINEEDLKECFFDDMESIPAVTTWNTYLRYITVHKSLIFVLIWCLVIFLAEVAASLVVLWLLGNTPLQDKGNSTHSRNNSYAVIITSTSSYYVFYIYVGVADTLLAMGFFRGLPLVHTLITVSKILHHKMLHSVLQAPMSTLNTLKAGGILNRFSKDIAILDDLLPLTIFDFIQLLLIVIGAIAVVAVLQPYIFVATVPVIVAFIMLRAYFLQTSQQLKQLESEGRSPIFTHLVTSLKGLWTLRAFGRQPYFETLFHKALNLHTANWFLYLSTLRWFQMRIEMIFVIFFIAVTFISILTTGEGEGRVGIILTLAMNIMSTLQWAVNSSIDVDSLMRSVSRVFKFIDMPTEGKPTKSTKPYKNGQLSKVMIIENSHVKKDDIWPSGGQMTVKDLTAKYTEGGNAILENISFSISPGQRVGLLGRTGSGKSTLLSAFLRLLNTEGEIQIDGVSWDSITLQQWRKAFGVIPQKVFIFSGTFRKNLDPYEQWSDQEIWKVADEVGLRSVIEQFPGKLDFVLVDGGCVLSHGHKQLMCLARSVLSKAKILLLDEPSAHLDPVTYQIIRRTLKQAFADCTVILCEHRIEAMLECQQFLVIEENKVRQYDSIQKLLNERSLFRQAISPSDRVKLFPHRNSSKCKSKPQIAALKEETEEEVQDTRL

Compound	DSLS 3D (100 μM ΔT) (NBD1)	TECC (AUC, 10 μM) (CFTR)
CC(Cc1cccc(C2(C)CCCC(C)(C)CS(=O)(=O)CCc3c(c(F)cc4[nH]ccc34)S(=O)(=O)c3ccc(F)c(c3)-c3nc2nn3C)c1)C(=O)O (single isomer, unassigned) [Compound 34B, 3-[3-(22,28-difluoro-3,6,10,10-tetramethyl-12,12,24,24-tetraoxo-12lambda6,24lambda6-dithia-3,4,19,30-tetrazapentacyclo[23.3.1.12,5.015,23.016,20]triaconta-1(29),2(30),4,15,17,20,22,25,27-nonaen-6-yl)phenyl]-2-methyl-propanoic Acid]	A (an ΔTagg value less than or equal to 5 °C is marked “A”)	A (a TECC value less than 12 is marked “A”)
CC1(C)CCCCC(C)(c2cccc(CCC(=O)O)c2)c2cnc([nH]2)-c2cc(ccc2F)Oc2c(F)cc3[nH]ccc3c2CCS(=O)(=O)C1 (single isomer, unassigned) [Compound 43A, 3-[3-(23,29-difluoro-6,11,11-trimethyl-13,13-dioxo-25-oxa-13lambda6-thia-3,20,31-triazapentacyclo[24.3.1.12,5.016,24.017,21]hentriaconta-1(30),2,4,16,18,21,23,26,28-nonaen-6-yl)phenyl]propanoic Acid]	A (an ΔTagg value less than or equal to 5 °C is marked “A”)	A (a TECC value less than 12 is marked “A”)
CC1(c2cccc(CCC(=O)O)c2)CCCC2(CC2)CS(=O)(=O)CCc2c(c(F)cc3[nH]ccc23)Oc2ccc(F)c(c2)-c2ncc1[nH]2 (single isomer, unassigned) [Compound 45A, 3-[3-(22,28-difluoro-6-methyl-12,12-dioxo-spiro [24-oxa-12lambda6-thia-3,19,30-triazapentacyclo[23.3.1.12, 5.015,23.016,20]triaconta-1(29),2,4,15,17,20,22,25,27-nonaene-10,1′-cyclopropane]-6-yl)phenyl]propanoic acid]	A (an ΔTagg value less than or equal to 5 °C is marked “A”)	A (a TECC value less than 12 is marked “A”)
CC1(c2cccc(CCC(=O)O)c2)CCCC2(CC2)CS(=O)(=O)CCc2c(c(F)cc3[nH]ccc23)Oc2ccc(F)c(c2)-c2ncc1[nH]2 (single isomer, unassigned) [Compound 45B, 3-[3-(22,28-difluoro-6-methyl-12,12-dioxo-spiro [24-oxa-12lambda6-thia-3,19,30-triazapentacyclo[23.3.1.12, 5.015,23.016,20]triaconta-1(29),2,4,15,17,20,22,25,27-nonaene-10,1′-cyclopropane]-6-yl)phenyl]propanoic acid]	C (a value greater than 10 °C and less than or equal to 25 °C is marked “C”)	A (a TECC value less than 12 is marked “A”)
CC1(C)CCCC(C)(c2cccc(OCC(=O)O)c2)c2cnc([nH]2)-c2cc(ccc2F)Oc2c(F)cc3[nH]ccc3c2CCS(=O)(=O)C1 (single isomer, unassigned) [Compound 54A, 2-[3-(22,28-difluoro-6,10,10-trimethyl-12,12-dioxo-24-oxa-12lambda6-thia-3,19,30-triazapentacyclo[23.3.1.12,5.015,23.016,20]triaconta-1(29),2,4,15,17,20,22,25,27-nonaen-6-yl)phenoxy]acetic acid]	C (a value greater than 10 °C and less than or equal to 25 °C is marked “C”)	C (a value between 20 and 80 is marked “C”)
CC1(C)CCCC(C)(c2cccc(OCC(=O)O)c2)c2cnc([nH]2)-c2cc(ccc2F)Oc2c(F)cc3[nH]ccc3c2CCS(=O)(=O)C1 (single isomer, unassigned) [Compound 54B, 2-[3-(22,28-difluoro-6,10,10-trimethyl-12,12-dioxo-24-oxa-12lambda6-thia-3,19,30-triazapentacyclo[23.3.1.12,5.015,23.016,20]triaconta-1(29),2,4,15,17,20,22,25,27-nonaen-6-yl)phenoxy]acetic acid]	B (a value above 5 °C and less than or equal to 10 °C is marked “B”)	A (a TECC value less than 12 is marked “A”)
Cn1nc2nc1C(C)(c1cccc(CCC(=O)O)c1)CCCC(C)(C)CS(=O)(=O)CCc1c(c(F)cc3[nH]ccc13)Oc1ccc(F)c-2c1 (single isomer, unassigned) [Compound 55A, 3-[3-(22,28-difluoro-4,6,10,10-tetramethyl-12,12-dioxo-24-oxa-12 lambda6-thia-3,4,19,30-tetrazapentacyclo[23.3.1.12,5.015,23.016,20]triaconta-1(29),2,5(30),15,17,20,22,25,27-nonaen-6yl)phenyl]propanoic Acid]	C (a value greater than 10 °C and less than or equal to 25 °C is marked “C”)	A (a TECC value less than 12 is marked “A”)
Cn1nc2nc1C(C)(c1cccc(CCC(=O)O)c1)CCCC(C)(C)CS(=O)(=O)CCc1c(c(F)cc3[nH]ccc13)Oc1ccc(F)c-2c1 (single isomer, unassigned) [Compound 55B, 3-[3-(22,28-difluoro-4,6,10,10-tetramethyl-12,12-dioxo-24-oxa-12 lambda6-thia-3,4,19,30-tetrazapentacyclo[23.3.1.12,5.015,23.016,20]triaconta-1(29),2,5(30),15,17,20,22,25,27-nonaen-6yl)phenyl]propanoic Acid]	B (a value above 5 °C and less than or equal to 10 °C is marked “B”)	A (a TECC value less than 12 is marked “A”)
CC1(C)CCCC(C)(c2cccc(CCC(=O)O)c2)c2nc(n[nH]2)-c2cc(ccc2F)Oc2c(F)cc3[nH]ccc3c2CCS(=O)(=O)C1 (single isomer, unassigned) [Compound 63A, 3-[3-(22,28-difluoro-6,10,10-trimethyl-12,12-dioxo-24-oxa-12λ6-thia-3,4,19,30-tetrazapentacyclo[23.3.1.12,5.015,23.016,20]triaconta-1(29),2,5(30),15,17,20,22,25,27-nonaen-6-yl)phenyl]propanoic Acid]	B (a value above 5 °C and less than or equal to 10 °C is marked “B”)	C (a value between 20 and 80 is marked “C”)
CC1(C)CCCC(C)(c2cccc(CCC(=O)O)c2)c2nc(n[nH]2)-c2cc(ccc2F)Oc2c(F)cc3[nH]ccc3c2CCS(=O)(=O)C1 (single isomer, unassigned) [Compound 63B, 3-[3-(22,28-difluoro-6,10,10-trimethyl-12,12-dioxo-24-oxa-12λ6-thia-3,4,19,30-tetrazapentacyclo[23.3.1.12,5.015,23.016,20]triaconta-1(29),2,5(30),15,17,20,22,25,27-nonaen-6-yl)phenyl]propanoic Acid]	C (a value greater than 10 °C and less than or equal to 25 °C is marked “C”)	C (a value between 20 and 80 is marked “C”)
Cc1cnn2c1-c1cc(ccc1F)Oc1c(F)cc3[nH]ccc3c1CCS(=O)(=O)CC(C)(C)CCCC2c1cccc(CCC(=O)O)c1 (single isomer, unassigned) [Compound 65A, 3-[3-(23,29-Difluoro-3,11,11-trimethyl-13,13-dioxo-25-oxa-13λ6-thia-5,6,20-triazapentacyclo[24.3.1.02,6.016,24.017,21]triaconta-1(30),2,4,16,18,21,23,26,28-nonaen-7-yl)phenyl]propanoic acid]	B (a value above 5 °C and less than or equal to 10 °C is marked “B”)	A (a TECC value less than 12 is marked “A”)
Cc1cnn2c1-c1cc(ccc1F)Oc1c(F)cc3[nH]ccc3c1CCS(=O)(=O)CC(C)(C)CCCC2c1cccc(CCC(=O)O)c1 (single isomer, unassigned) [Compound 65B, 3-[3-(23,29-Difluoro-3,11,11-trimethyl-13,13-dioxo-25-oxa-13λ6-thia-5,6,20-triazapentacyclo[24.3.1.02,6.016,24.017,21]triaconta-1(30),2,4,16,18,21,23,26,28-nonaen-7-yl)phenyl]propanoic acid]	C (a value greater than 10 °C and less than or equal to 25 °C is marked “C”)	A (a TECC value less than 12 is marked “A”)
CC(CC(=O)O)c1cccc(C2(C)CCOC(C)(C)CS(=O)(=O)CCc3c(c(F)cc4[nH]ccc34)Oc3ccc(F)c(c3)-c3nc2nn3C)c1 (single isomer, unassigned) [Compound 72A, 3-[3-(22,28-difluoro-3,6,10,10-tetramethyl-12,12-dioxo-9,24-dioxa-12lambda6-thia-3,4,19,30-tetrazapentacyclo-[23.3.1.12,5.015,23.016,20]triaconta-1(29),2(30),4,15,17,20,22,25,27-nonaen-6-yl)phenyl]-butanoic Acid]	C (a value greater than 10 °C and less than or equal to 25 °C is marked “C”)	A (a TECC value less than 12 is marked “A”)
CC(CC(=O)O)c1cccc(C2(C)CCOC(C)(C)CS(=O)(=O)CCc3c(c(F)cc4[nH]ccc34)Oc3ccc(F)c(c3)-c3nc2nn3C)c1 (single isomer, unassigned) [Compound 72B, 3-[3-(22,28-difluoro-3,6,10,10-tetramethyl-12,12-dioxo-9,24-dioxa-12lambda6-thia-3,4,19,30-tetrazapentacyclo-[23.3.1.12,5.015,23.016,20]triaconta-1(29),2(30),4,15,17,20,22,25,27-nonaen-6-yl)phenyl]-butanoic Acid]	A (an ΔTagg value less than or equal to 5 °C is marked “A”)	A (a TECC value less than 12 is marked “A”)
